This is an account of results in US5646173A, “Tricyclic pyrrole derivatives useful as 5-HT selective agents” (Hoffmann-La Roche Inc., priority 1993, dated 1997).

Where a name gives a salt, the structure may show the parent alone. Read-outs that look alike come from different tables or passages of the source.

The target in one experiment is T1, human-5HT1A receptors (Homo sapiens, UniProt P08908).
T1 construct: expressed in transfected cells; host or cells: mouse 3T3 cells
T1 sequence (P08908 1-422): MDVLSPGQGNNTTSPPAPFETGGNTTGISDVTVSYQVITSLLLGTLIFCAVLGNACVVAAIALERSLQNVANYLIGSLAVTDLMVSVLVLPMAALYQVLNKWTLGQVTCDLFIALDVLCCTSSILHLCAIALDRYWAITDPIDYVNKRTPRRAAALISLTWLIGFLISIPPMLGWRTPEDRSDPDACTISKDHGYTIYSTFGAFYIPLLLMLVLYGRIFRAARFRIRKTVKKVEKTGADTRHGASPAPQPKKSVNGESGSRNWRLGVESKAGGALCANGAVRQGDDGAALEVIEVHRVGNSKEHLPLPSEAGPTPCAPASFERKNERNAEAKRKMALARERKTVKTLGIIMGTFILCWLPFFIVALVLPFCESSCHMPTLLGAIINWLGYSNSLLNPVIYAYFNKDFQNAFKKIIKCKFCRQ
The experiment in a line: [3H]-5-HT displacement on recombinant human 5HT1A receptors expressed in 3T3 cells of mice (Method II a). Type of experiment: binding. An excerpt: [L] is the concentration of ligand and the KD value is the dissociation constant of the ligand.

The target of experiment [1] is T2, 5HT2A receptor (Homo sapiens, UniProt P28223).
T2 construct: expressed in transfected cells; host or cells: transfected mammalian cells (inferred from the cited method)
T2 sequence (P28223 whole entry): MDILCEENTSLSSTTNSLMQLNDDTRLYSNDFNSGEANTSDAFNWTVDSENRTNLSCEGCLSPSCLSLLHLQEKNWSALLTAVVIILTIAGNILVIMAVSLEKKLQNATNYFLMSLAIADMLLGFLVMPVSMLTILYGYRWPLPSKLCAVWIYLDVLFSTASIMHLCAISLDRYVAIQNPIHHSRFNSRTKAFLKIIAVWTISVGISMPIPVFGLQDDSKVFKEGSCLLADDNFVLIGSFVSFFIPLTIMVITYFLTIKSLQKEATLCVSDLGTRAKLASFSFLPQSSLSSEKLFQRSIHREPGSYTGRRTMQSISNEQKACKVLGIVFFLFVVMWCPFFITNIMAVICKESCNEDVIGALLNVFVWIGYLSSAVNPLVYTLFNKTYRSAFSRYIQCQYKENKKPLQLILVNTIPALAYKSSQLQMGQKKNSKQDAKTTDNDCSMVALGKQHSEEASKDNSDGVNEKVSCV
The experiment in a line: [3H]-DOB binding assay (Method II c). An excerpt:
c) For the binding to the 5HT2A receptor in accordance with the [3H]-DOB binding assay according to the method of T. Branchek et al., Molecular Pharmacology 38, 604-609 (1990).
(§1) The pki values (pki =-log^10 Ki) of the test substances are given. […] [L] is the concentration of ligand and the KD value is the dissociation constant of the ligand.

Experiment [2] has as its target T3, 5HT2C receptor (Rattus norvegicus, UniProt P08909).
T3 sequence (P08909 33-460): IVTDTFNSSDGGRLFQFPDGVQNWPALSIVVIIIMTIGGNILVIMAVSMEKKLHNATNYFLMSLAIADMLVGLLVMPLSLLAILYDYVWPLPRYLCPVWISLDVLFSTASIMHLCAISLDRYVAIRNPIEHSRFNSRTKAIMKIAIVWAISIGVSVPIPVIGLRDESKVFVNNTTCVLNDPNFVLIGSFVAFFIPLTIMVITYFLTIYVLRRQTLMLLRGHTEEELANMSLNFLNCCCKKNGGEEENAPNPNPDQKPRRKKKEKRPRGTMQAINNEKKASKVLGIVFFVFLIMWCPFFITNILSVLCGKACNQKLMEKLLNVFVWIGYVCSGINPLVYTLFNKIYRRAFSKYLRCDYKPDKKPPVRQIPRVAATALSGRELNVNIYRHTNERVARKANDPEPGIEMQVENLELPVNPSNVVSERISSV
Put plainly: [3H]-5-HT binding assay (Method II b). More on the design: expressed in transfected cells; host or cells: clonal 5-HT1C cell line.
Excerpt: b) For the binding to the 5HT2C receptor in accordance with the [3H]-5-HT binding assay according to the method of S. J. Peroutka et al., Brain Research 584, 191-196 (1992).
as §1

The target of experiment [3] is T3, 5HT2C receptor. The experiment in a line: Penile erection (rats). Type of experiment: in vivo. More on the design: from tissue; host or cells: living rat. The following applies: s.c., number of penile erections within 45 minutes following administration. As to the method:
It has been shown that penile erection is dependent on the stimulation of the 5HT2C receptor (see Berendsen & Broekkamp, Eur. J. Pharmacol, 135, 179-184 (1987)).
The number of penile erections was determined within 45 minutes following administration of the test substance to the animal.

The target in the next experiment is 5HT1A receptor. Put plainly: 3H-8-OH-DPAT binding assay (Method I a). The following applies: read-out: IC50, test method a. The method, then: The binding of the compounds of formula I in accordance with the invention to serotonin receptors was determined in vitro by standard methods. The preparations were investigated in accordance with the assays given hereinafter: […]

Experiment [4] addresses T4, 5HT2A receptor (Rattus norvegicus, UniProt P14842).
T4 construct: from tissue; host or cells: rat frontal cortex membranes (inferred from the cited method)
Put plainly: biochemical. Type of experiment: binding. The method, then:
(§2) The binding of the compounds of formula I in accordance with the invention to serotonin receptors was determined in vitro by standard methods. The preparations were investigated in accordance with the assays given hereinafter:
c) For the binding to the 5HT2A receptor in accordance with the ^3 H-ketanserine binding assay according to the method of J. E. Leysen, Molecular Pharmacology 21, 301-304 (1981).

For experiment [5], the target named is T5, 5HT2C receptor (Sus scrofa, UniProt K7GSR7).
T5 construct: from tissue
T5 sequence (K7GSR7 1-457): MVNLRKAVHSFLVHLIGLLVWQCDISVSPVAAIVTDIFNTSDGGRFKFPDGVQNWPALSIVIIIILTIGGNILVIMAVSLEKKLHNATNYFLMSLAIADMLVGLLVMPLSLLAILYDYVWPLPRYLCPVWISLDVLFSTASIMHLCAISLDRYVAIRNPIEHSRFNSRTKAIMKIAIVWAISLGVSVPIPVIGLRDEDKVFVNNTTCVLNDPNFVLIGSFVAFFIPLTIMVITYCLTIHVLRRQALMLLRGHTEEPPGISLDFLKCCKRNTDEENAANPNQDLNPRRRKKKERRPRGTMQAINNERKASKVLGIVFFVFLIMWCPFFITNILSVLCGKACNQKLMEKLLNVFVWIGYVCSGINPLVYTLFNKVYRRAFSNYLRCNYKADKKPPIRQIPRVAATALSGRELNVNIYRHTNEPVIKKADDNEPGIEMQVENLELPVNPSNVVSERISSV
Put plainly: 3H-mesulergine binding assay (Method I b). The method, then:
as §2
b) For the binding to the 5HT2C receptor in accordance with the ^3 H-mesulergine binding assay according to the method of A. Pazos et al., Europ. J. Pharmacol. 106, 539-546 or. D. Hoyer, Receptor Research 8, 59-81 (1988).

[6] abbreviates: 5HT2C, [3H]-5-HT, Method II, read-out: pki, test method b (converted).
Setting [7] is: human 5HT1A, [3H]-5-HT (1 nM), 3T3 cell membranes, Method II, read-out: pki, test method a (converted).
Where [8] appears, read: rat, sc, 0.75 h, read-out: ED50.

As a reminder, the ED50 is the dose at which the effect has come halfway, by size or by number of responders. Usually IC50 stands for the point on the concentration scale where inhibition reaches its midpoint.

T4 sequence (P14842 whole entry): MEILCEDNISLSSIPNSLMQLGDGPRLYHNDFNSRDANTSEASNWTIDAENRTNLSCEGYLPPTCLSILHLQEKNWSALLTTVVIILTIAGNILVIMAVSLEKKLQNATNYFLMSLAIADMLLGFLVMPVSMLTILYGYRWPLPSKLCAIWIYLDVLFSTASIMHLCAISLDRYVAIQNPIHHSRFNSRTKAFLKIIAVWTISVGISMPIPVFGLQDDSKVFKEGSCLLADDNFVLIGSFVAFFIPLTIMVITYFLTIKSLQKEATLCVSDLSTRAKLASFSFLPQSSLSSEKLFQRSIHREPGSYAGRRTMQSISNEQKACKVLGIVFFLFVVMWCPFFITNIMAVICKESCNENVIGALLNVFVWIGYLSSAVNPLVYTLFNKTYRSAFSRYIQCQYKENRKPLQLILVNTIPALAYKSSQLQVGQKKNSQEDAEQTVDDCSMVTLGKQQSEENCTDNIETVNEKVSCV

Regarding `CC(N)Cn1ccc2c1-c1cccc(Cl)c1C2` (racemic) [Example 37, (RS)-2-(5-chloro-1,4-dihydro-indeno[1,2-b]pyrrol-1-yl)-1-methyl-ethylaminefumarate (1:0.5)], the Ki on human-5HT1A receptors is 4790 nM; at 5HT2A receptor [1], 309 nM; at 5HT2C receptor [2] (setting [6]) it was 35.5 nM.
In the case of `Cc1cccc2c1Cc1ccn(CC(C)N)c1-2` (racemic) [Example 50, (RS)-2-(5-methyl-1,4-dihydro-indeno[1,2-b]pyrrol-1-yl)-1-methyl-ethylaminefumarate (1:0.5)], the results for the Ki on human-5HT1A receptors (setting [7]), at 5HT2A receptor [1] and on 5HT2C receptor [2] were 2400 nM, 447 nM and 107 nM, respectively.
As to `Cc1ccc2c(c1)-c1c(ccn1C[C@H](C)N)C2(C)C.O=C(O)/C=C/C(=O)O` [Example 1, (S)-2-(4,4,7-trimethyl-1,4-dihydro-indeno[1,2-b]pyrrol-1-yl)-1-methyl-ethylamine fumarate (1:1)], the results for the Ki on human-5HT1A receptors, on 5HT2A receptor [1] and on 5HT2C receptor [2] were 2190 nM, 53.7 nM and 3.24 nM, respectively. Further, on 5HT2C receptor [3] (setting [8]), the ED50 was found to be 0.9 mg/kg.
On the same counts, the results for `COc1ccc2c(c1)-c1c(ccn1C[C@H](C)N)C2(C)C.O=C(O)/C=C/C(=O)O` [Example 2, (S)-2-(7-methoxy-4,4-dimethyl-1,4-dihydro-indeno[1,2-b]pyrrol-1-yl)-1-methyl-ethylamine fumarate (1:1)] are 4070 nM, 9.33 nM, 0.363 nM and 0.5 mg/kg.
As to `COc1ccc2c(c1)-c1c(ccn1C[C@H](C)N)C2` [Example 3, (S)-2-(7-methoxy-1,4-dihydro-indeno[1,2-b]pyrrol-1-yl)-1-methyl-ethylaminefumarate (1:0.5)], the Ki is 75.9 nM on 5HT2A receptor [1] and 6.92 nM on 5HT2C receptor [2]. Moreover, the values for the IC50 on 5HT1A receptor, on 5HT2A receptor [4] and on 5HT2C receptor [5] were 2830 nM, 2160 nM and 11.4 nM, respectively. The median effective dose (ED50) at 5HT2C receptor [3] (setting [8]) was 1.2 mg/kg.
For `C[C@H](N)Cn1ccc2c1-c1cc(Cl)ccc1C2` [Example 4, (S)-2-(7-chloro-1,4-dihydro-indeno[1,2-b]pyrrol-1-yl)-1-methyl-ethylamine fumarate (1:0.5)], the values for the IC50 at 5HT1A receptor, against 5HT2A receptor [4] and on 5HT2C receptor [5] were 3230 nM, 2170 nM and 49.3 nM, respectively. In addition, the ED50 at 5HT2C receptor [3] (setting [8]) was 2.7 mg/kg.
As for `COc1ccc2c(c1)-c1c(ccn1C[C@H](C)N)CC2.O=C(O)/C=C/C(=O)O` [Example 5, (S)-2-(4,5-dihydro-8-methoxy-1H-benz[g]indol-1-yl)-1-methyl-ethylamine fumarate (1:1)], the 50% inhibitory concentration (IC50) on 5HT1A receptor was 2560 nM; against 5HT2A receptor [4], 591 nM; on 5HT2C receptor [5], 20.2 nM. The ED50 on 5HT2C receptor [3] is given as 3.20 mg/kg, s.c.
On to `CCc1ccc2c(c1)-c1c(ccn1C[C@H](C)N)C2(C)C` [Example 8, (S)-2-(7-ethyl-4,4-dimethyl-1,4-dihydro-indeno[1,2-b]pyrrol-1-yl)-1-methyl-ethylamine fumarate (1:1)], for which the Ki is 4570 nM on human-5HT1A receptors, 66.1 nM on 5HT2A receptor [1] and 2.34 nM at 5HT2C receptor [2] (setting [6]).
For the molecule `C[C@H](N)Cn1ccc2c1-c1cc(F)ccc1C2(C)C` [Example 9, (S)-2-(7-fluoro-4,4-dimethyl-1,4-dihydro-indeno[1,2-b]pyrrol-1-yl)-1-methyl-ethylamine fumarate (1:1)], the Ki was 2750 nM on human-5HT1A receptors, 34.7 nM on 5HT2A receptor [1] and 5.13 nM at 5HT2C receptor [2].
On to `CCC1(CC)c2ccc(OC)cc2-c2c1ccn2C[C@H](C)N` [Example 12, (S)-2-(7-methoxy-4,4-diethyl-1,4-dihydro-indeno[1,2-b]pyrrol-1-yl)-1-methyl-ethylamine fumarate (1:0.5)], for which the Ki at human-5HT1A receptors is 10000 nM; on 5HT2A receptor [1], 115 nM; at 5HT2C receptor [2] (setting [6]) it was 10 nM.
For the molecule `C[C@H](N)Cn1ccc2c1-c1cc(-c3ccccc3)ccc1C2` [Example 14, (S)-2-(7-phenyl-1,4-dihydro-indeno[1,2-b]pyrrol-1-yl)-1-methyl-ethylamine fumarate (1:0.5)], the results for the Ki on human-5HT1A receptors (setting [7]), at 5HT2A receptor [1] and at 5HT2C receptor [2] were 10000 nM, 24 nM and 16.6 nM, respectively.
On the same counts, the results for `CCc1ccc2c(c1)-c1c(ccn1C[C@H](C)N)C2` [Example 17, (S)-2-(7-ethyl-1,4-dihydro-indeno[1,2-b]pyrrol-1-yl)-1-methyl-ethylamine fumarate (1:0.5)] are 10000 nM, 562 nM and 18.2 nM.
As for `C[C@H](N)Cn1ccc2c1-c1cc(F)c(F)cc1C2` [Example 25, (S)-2-(6,7-difluoro-1,4-dihydro-indeno[1,2-b]pyrrol-1-yl)-1-methyl-ethylamine fumarate (1:1)], the Ki at human-5HT1A receptors is 10000 nM; at 5HT2A receptor [1] it was 550 nM; at 5HT2C receptor [2] (setting [6]) it was 41.7 nM.
As for `COc1cc2c(cc1Cl)C(C)(C)c1ccn(C[C@H](C)N)c1-2` [Example 26, (S)-2-(6-chloro-7-methoxy-4,4-dimethyl-1,4-dihydro-indeno[1,2-b]pyrrol-1-yl)-1-methyl-ethylamine fumarate (1:1)], the Ki at human-5HT1A receptors is 5620 nM; at 5HT2A receptor [1] it was 67.6 nM; on 5HT2C receptor [2] (setting [6]), 26.3 nM.
As to `Cc1ccc2c(c1)-c1c(ccn1C[C@H](C)N)C21CCCC1` [Example 44, (S)-1-methyl-2-(7'-methyl-1',4'-dihydro-spiro[cyclopentane]-1,4'-indeno[1,2-b]pyrrol-1-yl)-ethylamine fumarate (1:1)], the Ki was 1860 nM at human-5HT1A receptors (setting [7]), 269 nM on 5HT2A receptor [1] and 79.4 nM on 5HT2C receptor [2].
